Results on five compounds are retold here after US20240307388A1, “FORMULATIONS FOR SUBSTITUTED 3-PYRROLIDINES, COMPOSITIONS CONTAINING, AND USES OF SAME” (LIPIDIO PHARMACEUTICALS, INC., priority 2016, published 2024).

The nature of data set [1]: Analog solubility in TSAG3 gel vehicle (minus Carbopol). It counts as physicochemical. The following applies: for Supernatant concentration Mean (N = 2-3) mg/g at RT after 4 days equilibration / Visual observation of sample after 4 days: TSAG3 gel vehicle minus 1% w/w Carbopol, 30 mg/g added, 20-23° C. How it is done:
In order to assess the compatibility with the modified TSAG3 gel formulation, several analogs were saturated in the gel components at room temperature (20-23° C.). The method used was as follows: Each analog at the equivalent of 30 mg/g was added to 500 microliters of the gel vehicle (minus the 1% w/w Carbopol as this made the gel too viscous) and allowed to equilibrate using a gently rotating, rotisserie sample holder that was allowed to come to equilibrium over 4 days. The samples were visually observed, filtered and diluted for analysis via HPLC in a concentrations range predetermined to be in a linear range for analyte detection. It is believed that Carbopol makes little difference to the equilibrium solubility at the 1% w/w level but may possibly prevent precipitation of super−saturated solutions of drug initially over 24-48 hours which is a further reason for taking it out to better assess the drug solubility in the remainder of the formulation.

For data set [2], the system named is mouse 3T3 L1 preadipocytes. In words: Viability of mouse 3T3 L1 preadipocytes (Cell Titer Blue). It counts as cell-based. The conditions noted are these: 10 μM. Here is the method: Viability of mouse 3T3 L1 preadipocytes (ATCC, Mannassas, VA) cultured in a 96-well plate following treatment with 10 μM Compound A and analogs Compounds B, D, E, G and H was assessed using Cell Titer Blue (Promega (Madison, WI)) according to manufacturer's instructions. […] To evaluate how the efficacy of Compound A in reducing lipid accumulation altered with substrate availability, studies were performed in differentiating mouse 3T3-L1 pre-adipocytes using charcoal stripped serum to reduce substrate concentration and also with added exogenous palmitate as the substrate. 3T3-L1 cells were plated at 6000 cells/cm^2 and cultured until confluence at 37° C. in a humidified incubator in 95% air/5% CO2. Two days post-confluence pre-adipocyte differentiation was initiated using adipocyte differentiation medium containing DMEM with high glucose, 10% fetal bovine serum, insulin (1.7 μM), dexamethasone (1 μM), IBMX (0.5 mM), PPARy agonist Rosiglitazone, (1 μM) with penicillin and streptomycin with 10 nM compound A or vehicle (0.1% DMSO). Seventy two hours following the initiation of differentiation, media was replaced with adipocyte maintenance media containing DMEM with high glucose and insulin (1.7 μM) with 10 nM compound A or vehicle (0.1% DMSO) (FIG. 12). Serum composed of 100% FCS or that containing 20, 40, 60, 80 or 100% charcoal stripped serum (cFCS). For experiments where sodium palmitate was added the serum comprised of a 90:10 ratio of FCS:cFCS with 5.0 or 50 μM palmitate/bovine-serum albumin (BSA) complex. Sodium palmitate was conjugated to BSA for use in experiments and was prepared by dissolving to 100 mM in 200 proof ethanol. The palmitate was diluted to 20 mM with D-PBS. The palmitate was then further diluted 1:1 with 30% fatty acid free albumin and incubated overnight at 37° C. The solution was sterile filtered with a 0.22 micron syringe filter prior to treating cells. The BSA control was prepared in the same manner, without the fatty acid. For the studies in which palmitate was added the media additionally contained palmitate/BSA complex at the same concentration as that used during the differentiation stage. Following a further forty-eight hours or ninety-six hours of incubation (Day 6 or Day 8 respectively) the media was removed, wells rinsed with PBS, and 200 μL PBS was added. Five microliters of AdipoRed™ reagent was added to each well, mixed, and allowed to stand at room temperature for 10 mins. Triglyceride was quantitated in a fluorimeter (i3 SpectraMax, Molecular Devices) using ? ex 530 nm and ? em 590 nm to determine relative fluorescent units (RFU). Percent inhibition of triglyceride accumulation in Compound A treated 3T3-L1 adipocytes compared to those treated with vehicle under each condition was calculated by using the formula; % Triglyceride Compound A treated adipocytes=100*(RFU Compound A treated adipocytes/RFU vehicle treated adipocytes).

Data set [3] has as its system Mouse melanoma cells (B16F10). Put plainly: Cytotoxicity in mouse melanoma cells (CellTiter-Glo). The format is cell-based. The following applies: for effect of oleic acid on cytotoxicity: B16F10, oleic acid at 25 μM in the media. How it is done: (§1) Mouse melanoma cells (B16F10) (American Type Culture Collection (ATCC), Manassas, VA) were cultured in Dulbecco's minimal essential media (DMEM) containing 10% fetal bovine serum, (Thermofisher, Waltham, MA). Cells were plated at a density of 5,000 cells per well into a 96-well plate and allowed to attach for 24 h in a 37° C. humidified incubator with a 5% CO2 atmosphere. Media was replaced with that containing test agents or vehicle (0.1% dimethylsulphoxide) and cells incubated for a further 48 h. Cell viability was assessed using CellTiter-Glo® (Promega).
(§2) An oleate-bovine serum albumin (BSA) conjugate was prepared by dissolving sodium oleate to 100 mM in methanol. The oleate was diluted to 20 mM with PBS and further diluted 1:1 with 30% fatty acid free albumin and incubated overnight at 37° C. The solution was sterile filtered prior to treating cells. The BSA control was prepared in the same manner, without the fatty acid. […] Non-linear regression analysis was performed using GraphPad PRISM®.

Another data set deals with B16F10 cells. Put plainly: Melanin production in B16F10 melanoma cells. The conditions noted are these: 10 nM, 48 h. It counts as cell-based, mouse. Here is the method:
B16F10 cells were plated at 150,000 cells per well into a 6-well plate and allowed to attach for 24 h in a 37° C. humidified incubator with a 5% CO2 atmosphere. Media was replaced with that containing test agents or vehicle (0.1% DMSO) and cells incubated for a further 48 h. Wells were washed once with PBS and cells removed by trypsinization and transferred to eppendorf tubes. Tubes were centrifuged at 1000 g for 10 minutes and the cell pellet resuspended in 0.5 mls PBS. Since compound A and analogs caused a reduction in cell viability the relative cell number per well was determined by taking an aliquot of the cell suspension in PBS and using CellTiter Glo® to determine the relative number of viable cells (Figure XX5). The PBS/cell suspension was centrifuged at 1000 g for 10 mins and the cell pellet resuspended in 1N NaOH/10% DMSO (v/v) and the tubes heated in a dry heating block at 80° C. with occasional vortexing to mix. In parallel a standard curve of melanin was prepared in 1N NaOH/10% DMSO using Sepia melanin (Sigma, St. Louis, MO) and standards also heated at 80° C. for 1 h. Samples and standards were centrifuged at 3000 g for 5 minutes and aliquots of the supernatant transferred to a 96-well plate for determination of melanin using Abs 475 nm. Melanin cellular content was interpolated from a standard curve and corrected based on the relative cell number in the sample.

Data set [4] is described as follows: Cytotoxicity in mouse melanoma cells (CellTiter-Glo). It counts as cell-based. The conditions noted are these: mouse, B16F10 mouse melanoma cells; B16F10, 48 h, representative experiment. Here is the method:
as §1, §2

Data set [5] concerns Human subcutaneous pre-adipocytes. Put plainly: Lipid accumulation in differentiating primary human adipocytes (AdipoRed). The format is cell-based. The conditions noted are these: Adipocyte, 144 h, six days, read-out: IC50, reduction in lipid accumulation. How it is done: Human subcutaneous pre-adipocytes (Zenbio (RTP, NC, U.S.A.)) were received pre-plated in white-walled 96-well plates. A schematic description of the protocol used for examining the effects of Compound A on lipid accumulation in differentiating human adipocytes is shown in FIG. 9. Upon arrival of cells (Day 1) 150 μL media in the wells was replaced with adipocyte differentiation media (Zenbio (RTP, NC, U.S.A.)). The following day media was replaced as described for Day 1. Media was subsequently replaced as described every two to three days. On Day 6, 150 μL of the adipocyte differentiation media was replaced with vehicle (0.1% DMSO), or the SCD1 inhibitors at the concentrations indicated. […] Cytotoxicity following incubation of adipocytes with Compound A was determined in separate wells, not used for Adipored™ staining, and was measured using CellTiter-Glo® (Promega (Madison, WI)) according to the manufacturer's instructions. Following a 10 min room temperature incubation the luminescence measured as relative light units (RLU) was determined in a luminescent plate reader. For adipocytes treated with concentrations of 1.2-100 nM Compound A for 6 days, cell viability as determined by RLU following CellTiter-Glo® remained greater than 75% of the value obtained with vehicle-treated adipocytes. […]

Data set [6] deals with HSC-1 human squamous carcinoma cells. Put plainly: Cytotoxicity in human squamous carcinoma cells (CellTiter-Glo). The conditions noted are these: HSC-1, 72 h, 1% FBS, representative experiment, read-out: EC50 (cell viability). It counts as cell-based. How it is done: The human skin squamous carcinoma line (HSC) (Japanese Collection of Research Bioresources Cell Bank (JCRB)) was cultured in Dulbecco's minimal essential media (DMEM) containing 20% fetal bovine serum (FBS), (Thermofisher, Waltham, MA). Cells were plated at a density of 5,000 cells per well into a 96-well plate and allowed to attach for 24 h in a 37° C. humidified incubator with a 5% CO2 atmosphere. Media was replaced with that containing test agents or vehicle (0.1% dimethylsulphoxide) in 1% FBS and cells incubated for a further 72 h. Cell viability was assessed using CellTiter-Glo® (Promega). Non-linear regression analysis was performed using GraphPad PRISM®.

`O=C(COc1ccc(CO)cc1)N1CC[C@H](Oc2ccccc2)C1` [Compound B]: in data set [1], the “Supernatant concentration Mean (N = 2-3) mg/g at RT after 4 days equilibration” value (“Supernatant concentration Mean” below) is 28.46 mg/g and the “Visual observation of sample after 4 days” value (“Visual observation of sample” for short) is given as “Clear solution”. Further, the “cell viability compared to vehicle treated cells” value in data set [2] was “No loss in cell viability”.
On the same counts, the results for `O=C(COc1ccc(CO)cc1)N1CC[C@H](Oc2cccc(C(F)(F)F)c2)C1` [Compound D] are 28.35 mg/g, “Clear solution” and “No loss in cell viability”.
As to `O=C(COc1ccc(CO)cc1)N1CC[C@H](Oc2ccc(C(F)(F)F)cc2)C1` [Compound E], in data set [1], the “Supernatant concentration Mean” value came out at 23.18 mg/g and the “Visual observation of sample” value is given as “Visible precipitate”. Further, in data set [1] (TSAG3 gel vehicle minus Carbopol), the “solubility as % of Compound A solubility” value is listed as “about 77%”. The “reduction of cell viability” value in data set [3] (B16F10, 48 h, up to 100 nM) is given as “did not reduce the viability”. The “cell viability compared to vehicle treated cells” value in data set [2] is given as “No loss in cell viability”.
`O=C(COc1ccc(CO)cc1)N1CC[C@H](Oc2ccccc2OC(F)(F)F)C1` [Compound G]: the melanin content entry in the data set on B16F10 cells is listed as “increase in melanin”. In data set [1], the “Supernatant concentration Mean” value was 28.78 mg/g and the “Visual observation of sample” value is on record as “Clear solution”. For the same compound, the “effect of oleic acid on cytotoxicity” value in data set [3] is listed as “prevented the cytotoxic effect”. In data set [4], this compound came in with an EC50 at 48 h of 4.3 nM. The IC50 in data set [5] is 24.2 nM. Also, in data set [6], the EC50 came out at 9.2 nM. For the same compound, the “cell viability compared to vehicle treated cells” value in data set [2] is listed as “No loss in cell viability”.
Take `Cc1ccccc1O[C@H]1CCN(C(=O)COc2ccc(CO)cc2)C1` [Compound H]: in data set [1], the “Supernatant concentration Mean” value was 27.89 mg/g and the “Visual observation of sample” value is listed as “Clear solution”. Further, the “effect of oleic acid on cytotoxicity” value in data set [3] is given as “prevented the cytotoxic effect”. Also, the EC50 at 48 h in data set [4] amounted to 46 nM. Also, in data set [5], the IC50 turned out to be 56 nM. In data set [2], the “cell viability compared to vehicle treated cells” value was “No loss in cell viability”.
